Measured values: PubChem BioAssay (NCI)
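Compound exposure: 48 hours, 5 concentrations, 96-well plates. GI50 is the concentration that inhibits growth by half. TGI: concentration producing complete growth inhibition.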

Assays:
Test in all cases: growth of human tumour cells (NCI), 48 h
[1] = test system: SNB-75 CNS
[2] = test system: OVCAR-8 ovarian
[3] = test system: SK-MEL-28 melanoma
[4] = test system: UACC-62 melanoma
[5] = test system: UACC-257 melanoma
[6] = test system: ACHN renal
[7] = test system: NCI-H23 lung
[8] = test system: UO-31 renal
[9] = test system: SNB-19 CNS
[10] = test system: NCI-H460 lung

Row | Structure (SMILES) | GI50 [1] | TGI [1] | GI50 [2] | TGI [2] | GI50 [3] | TGI [3] | GI50 [4] | TGI [4] | GI50 [5] | TGI [5] | GI50 [6] | TGI [6] | GI50 [7] | TGI [7] | GI50 [8] | TGI [8] | GI50 [9] | TGI [9] | GI50 [10] | TGI [10]
1 | Oc1ccc2oc3ncc(Cl)c(-c4ccccc4)c3c2c1 | > 100 µM | > 100 µM | > 100 µM | > 100 µM | > 100 µM | > 100 µM | > 100 µM | > 100 µM | > 100 µM | > 100 µM | > 100 µM | > 100 µM | > 100 µM | > 100 µM | > 100 µM | > 100 µM | > 100 µM | > 100 µM | > 100 µM | > 100 µM
2 | Cc1ccc(Cl)cc1Nc1nc(C(F)(F)F)ccc1C(=O)Nc1cccc(C(F)(F)F)c1 | 3.11 µM | 12.3 µM | 3.62 µM | 15.8 µM | 4.55 µM | 18.3 µM | 5.22 µM | 17.1 µM | 2.93 µM | 8.35 µM | 2.95 µM | 12.8 µM | 2.63 µM | 11.9 µM | 2.84 µM | 12.7 µM | 3.59 µM | 14.6 µM | 2.79 µM | 10.1 µM
3 | CCSc1oc(-c2ccccc2)nc1[P+](c1ccccc1)(c1ccccc1)c1ccccc1 | 0.177 µM | 0.727 µM | 0.275 µM | 12.3 µM | 0.467 µM | 2.32 µM | 0.305 µM | 1.44 µM | 0.309 µM | 1.28 µM | 0.309 µM | 1.13 µM | 0.277 µM | 1.1 µM | 0.321 µM | 1.38 µM | 0.293 µM | 3.88 µM | 0.298 µM | 1.08 µM
4 | Cn1c2c([N+](=O)[O-])[se]nc2c(=O)n1-c1ccc([N+](=O)[O-])cc1 | – | 7.63 µM | – | 2.72 µM | – | 4.39 µM | – | 3.25 µM | – | 4.17 µM | – | 3.71 µM | – | 4.49 µM | – | 3.59 µM | – | 18.4 µM | – | 6.77 µM
5 | CCOC1OCCCC1Br (configuration not stated) | – | > 100 µM | – | > 100 µM | – | > 100 µM | – | > 100 µM | – | > 100 µM | – | > 100 µM | – | > 100 µM | – | > 100 µM | – | > 100 µM | – | > 100 µM
6 | NCCCCCS(=O)(=O)O | – | > 100 µM | – | > 100 µM | – | > 100 µM | – | > 100 µM | – | > 100 µM | – | > 100 µM | – | > 100 µM | – | > 100 µM | – | > 100 µM | – | > 100 µM
7 | CC#C[C@@]1(O)CCCC[C@@H]1O | – | > 100 µM | – | > 100 µM | – | > 100 µM | – | > 100 µM | – | > 100 µM | – | > 100 µM | – | > 100 µM | – | > 100 µM | – | > 100 µM | – | > 100 µM
8 | OCC(O)C(O)c1nn(-c2ccccc2)c2nc3cc(Cl)c(Cl)cc3nc12 (configuration not stated) | – | 52 µM | – | 69.2 µM | – | > 100 µM | – | > 100 µM | – | > 100 µM | – | 75.6 µM | – | > 100 µM | – | 63.5 µM | – | > 100 µM | – | 82.1 µM
9 | COc1ccc(-c2oc(=O)ccc2C#Cc2cc(OC)c(OC)c(OC)c2)cc1O | 20.8 µM | 69.9 µM | 35.2 µM | > 100 µM | 37.7 µM | > 100 µM | 13.5 µM | 63.5 µM | 36.4 µM | > 100 µM | 11.6 µM | 44.3 µM | 22.3 µM | 81.2 µM | 30.9 µM | > 100 µM | 31.4 µM | > 100 µM | 15.7 µM | 62.9 µM
10 | CC1=NNC(=NCCN(C)C)C/C1=C/c1ccccc1Cl | – | > 100 µM | – | > 100 µM | – | > 100 µM | – | > 100 µM | – | 98 µM | – | > 100 µM | – | > 100 µM | – | > 100 µM | – | > 100 µM | – | > 100 µM
11 | O=C(O)c1c(O)c2cc(Br)ccc2oc1=O | – | > 100 µM | – | > 100 µM | – | > 100 µM | – | > 100 µM | – | > 100 µM | – | > 100 µM | – | > 100 µM | – | – | – | > 100 µM | – | > 100 µM
12 | CCN(CC)CCN1C(=O)c2c(c(C)c3c(oc4cc(O)ccc43)c2C)C1=O | 1.44 µM | 2.8 µM | 2.11 µM | 5.72 µM | 1.58 µM | 3.03 µM | 1.58 µM | 2.96 µM | 1.95 µM | 4.15 µM | 1.56 µM | 2.89 µM | 1.7 µM | 3.2 µM | 1.48 µM | 2.81 µM | 1.68 µM | 3.21 µM | 1.75 µM | 3.37 µM
13 | CCOC(=O)c1sc(-c2ccc(OS(=O)(=O)c3cccs3)c(C=O)c2)nc1C | 1.57 µM | 4.07 µM | – | – | 2.01 µM | 4.07 µM | 1.43 µM | 2.92 µM | 2.51 µM | 6.35 µM | 2.06 µM | 5.88 µM | 1.76 µM | 4.54 µM | 1.73 µM | 5.13 µM | 1.37 µM | 2.95 µM | 2.22 µM | 4.96 µM
14 | Cn1nc(C(F)(F)F)c(-c2ccc(Cl)c(C(F)(F)F)c2)c1-c1ccc(OCc2ccc(Cl)cc2)cc1O | 1.45 µM | 7.54 µM | 1.73 µM | 6.37 µM | 1.88 µM | 7.33 µM | 1.58 µM | 5.8 µM | 1.37 µM | 4.09 µM | 1.61 µM | 5.03 µM | 1.41 µM | 4.83 µM | 1.26 µM | 4.39 µM | 2.03 µM | 8.17 µM | 1.71 µM | 5.64 µM
15 | COc1ccc2c(c1)CCC1C2CC[C@@]2(C)C1CC[C@@]2(O)CNC(=O)/C=C/c1ccc(O)c(OC)c1 (some centres not stated) | 26.6 µM | > 100 µM | 38.4 µM | > 100 µM | 15.2 µM | 84.4 µM | 12.1 µM | 34.9 µM | 28 µM | 80 µM | 17.5 µM | 46.7 µM | 25.5 µM | > 100 µM | 10.3 µM | > 100 µM | 27.8 µM | > 100 µM | 4.02 µM | > 100 µM
